Test results from patent publication US20230265456A1, “GENE THERAPY VECTOR EXPRESSING CYP27A1 FOR THE TREATMENT OF CEREBROTENDINOUS XANTHOMATOSIS” (FUNDACION PARA LA INVESTIGACION MEDICA APLICADA, priority 2020, published 2023).
Entries after “also recorded” stand apart in the source; their conditions may differ.

Tests used:
Assay type in all cases: in vivo, mouse
CTX mice [1] = test: Cholestanol and 7αC4 in plasma of treated CTX mice (HPLC-MS/MS)
Text: A mouse strain with truncation of Cyp27a1 exon 8 was obtained from The Jackson Laboratory (Bar Harbor, Me.) (B6.129-Cyp27a1^tm1Et/J, Ref. 009106) (Rosen H, et al. J. Biol. Chem. 1998; 273:14805-14812). Mice homozygous for this mutation (referred hereinafter to as Cyp27a1^−/− or CTX mice) were maintained in a C57BL6/J background by crossing heterozygous individuals. The offspring was genotyped after weaning as indicated by the repository.
Animals were group-housed, up to 6 animals per cage (male or female), provided with food and water ad libitum and maintained with a 12 h light-dark cycle. The average age for initiation of studies was 7 weeks. AAV vectors were administered intravenously by retro-orbital injection in a final volume of 150 μl saline solution. Chenodeoxycholic (CDCA) (Sigma-Aldrich, Ref: C9377-25G) was supplemented in standard chow at 0.1, 0.5 and 1 g CDCA/100 g of chow (0.1, 0.5 and 1.0% CDCA diets, respectively). Blood was collected by submandibular venous puncture using 1.3 ml EDTA tubes (Sarstedt, Nimbrecht, Germany) except for end-time points/terminal procedures, in which cardiac puncture was performed in anesthetized mice. Once animals were euthanized, liver samples were collected for histological and gene expression analyses.
(§1) Blood was centrifuged at 10.000 g for 5 min at room temperature. Plasma was treated with 20 μM butylhydroxytoluene (Sigma) in a N2 atmosphere to protect from oxidation before storage at −80° C. in opaque tubes. Sterol extractions were performed using 100 μl of plasma for quantification of cholestanol and 7αC4 concentrations by HPLC-MS/MS as previously described (Chen W, Chiang J Y L. Gene. 2003; 313:71-82). Bile acid (BA) profiling in serum was carried out after acetonitrile precipitation/extraction (Leníček M, et al. J. Chromatogr. B Anal. Technol. Biomed. Life Sci. 2016; 1033-1034:317-320), using an adaptation (Nytofte N S, et al. J. Med. Genet. 2011; 48:219-225). of a previously described method for BA measurement by HPLC-MS/MS (Ye L, et al. J. Chromatogr. B Anal. Technol. Biomed. Life Sci. 2007; 860:10-17) on a 6420 Triple Quad LC/MS device (Agilent Technologies, Santa Clara, Calif.) (Monte M J, et al. J. Hepatol. 2002; 36:534-542). Alanine aminotransferase (ALT) was quantified in 40 μl plasma samples using a Cobas C311 automated chemistry analyser (Roche Diagnostics, Basel, Switzerland).
This is the only CTX animal model available to date (Rosen et al. J. Biol. Chem. 273 (1998) 14805-14812).
Blood was collected 15 days later for determination of cholestanol and 7aC4 in plasma by HPLC/mass spectrometry. […] Of note, neither elevation of liver transaminases nor any other sign of toxicity was detected in any of the treated animals.

CTX mice [2] = test: Bile acid profile in blood (HPLC-MS/MS)
Procedure: as §1
In order to determine if gene therapy is able to achieve sustained metabolic correction in CTX mice, the bile acid profile was analyzed in the blood of animals treated with AAV8-EAAT-CYP27A1 for 5 months at 1.5 or 15×10^12 vg/Kg. The optimal dose of CDCA (0.5% chow weight) was maintained for the same period and used for comparison. The inventors observed an increase of primary and secondary bile acids in mice treated with the vector at both doses (FIG. 12), including CDCA. […] This tendency was more evident in the high dose group and included other species such as tauromuricholic acids (TMCA) and taurohyodeoxycholic acid (THDCA). In sharp contrast, treatment with CDCA caused a drastic increase in this bile acid and its derivatives (1000-fold above normal levels), whereas CA and derived species were not restored.

CTX mice [3] = test: Hepatomegaly: relative liver weight as percentage of body weight; conditions: 0.5% diet, 3 months
Procedure: FIG. 11. AAV8-EAAT-CYP27A1 reverses hepatomegaly in CTX mice. The AAV8-EAAT-CYP27A1 vector was administered intravenously to 7 week-old CTX mice at the indicated doses. CDCA was mixed in mouse chow at 0.1 or 0.5%. Untreated CTX and WT littermates were included as a reference. Mice were maintained for 3 months and then they were sacrificed for determination of relative liver weight, represented as percentage of body weight. *p<0.05; ***p<0.001 versus untreated CTX mice. Kruskal-Wallis with Dunn's post-test.
Activation of the xenobiotic response pathways produces hepatomegaly in CTX mice (Repa J J, et al. J. Biol. Chem. 2000; 275:39685-39692).

Cyp7a1 = conditions: 0.5% diet (therapeutic dose), one month
Procedure: (§2) RNA was extracted from frozen liver samples using the Maxwell® 16 LEV simplyRNA Cells Kit (Promega) following manufacture's recommendations. Two μg of RNA, treated with DNase I, were retro-transcribed using M-MLV retro-transcriptase (Invitrogen™) and random primers (Life Technologies, Thermo). cDNA was amplified and relative gene expression was determined by quantitative polymerase chain reaction (qPCR) using iQ™ SYBR® Green Supermix reagent (Bio-Rad), in CFX96 Touch™ Real-Time PCR Detection System (Bio-Rad). Table 1 contains the sequence of primers specific for the transgene (CYP27A1) and the mouse genes Cyp7a1, Cyp3a11, Cyp27a1 (exons 1/2), Cyp27a1 (exons 8/9) and 36b4 (used as a housekeeping gene).
(§3) ΔCt values using 36b4 mRNA levels as reference gene were corrected with the efficiency of amplification of each pair of primers and multiplied by 1.000 to facilitate graphical representation.
(§4) To this aim, mRNA was extracted from liver samples collected 2 weeks after vector administration, or one month after initiation of the CDCA treatment. First, the inventors studied the impact of the treatments on the transcriptional control of the endogenous Cyp27a1 gene. Since CTX mice present truncation of the gene at exon 8 out of 9 (Rosen H, et al. J. Biol. Chem. 1998; 273:14805-14812), the inventors employed primers targeting exons 1/2 in order to detect the wild type or truncated transcripts.

Cyp3a11 = conditions: 0.5% diet, one month
Procedure: as §2, §3, §4

Cyp27a1 = test: Endogenous Cyp27a1 mRNA in liver (primers exons 1/2), qPCR; conditions: liver 2 weeks after vector or one month after initiation of CDCA diet
Procedure: as §2, §3, §4

CTX mice [4] = test: Tolerability: transaminases (ALT), liver histology, body weight, signs of toxicity; conditions: diet 1% of chow weight
Procedure: Blood was centrifuged at 10.000 g for 5 min at room temperature. Plasma was treated with 20 μM butylhydroxytoluene (Sigma) in a N2 atmosphere to protect from oxidation before storage at −80° C. in opaque tubes. […] Alanine aminotransferase (ALT) was quantified in 40 μl plasma samples using a Cobas C311 automated chemistry analyser (Roche Diagnostics, Basel, Switzerland).

[5] = diet 0.1, 0.5 or 1% of chow weight, one month

C[C@H](CCC(=O)O)[C@H]1CC[C@H]2[C@@H]3[C@H](O)C[C@@H]4C[C@H](O)CC[C@]4(C)[C@H]3CC[C@]12C [CDCA, chenodeoxycholic acid]
7αC4 in plasma (CTX mice [1]; [5]): dose-dependent reduction
cholestanol in plasma (CTX mice [1]; [5]): dose-dependent reduction
cholestanol levels in plasma (CTX mice [1]; diet 0.5% or higher, one month): below WT mice; also recorded: very efficient
7αC4 in plasma (CTX mice [1]; diet 0.5%, one month, male and female): full normalization; also recorded: not completely normalized
therapeutic dose in the CTX model (CTX mice [1]; percent of chow weight, dose required for normalization of 7αC4): 0.5%
CA and derived species in blood (CTX mice [2]; 0.5% chow weight, 5 months): not restored
increase in CDCA and its derivatives in blood above normal levels (CTX mice [2]; 0.5% chow weight, 5 months): 1000 fold
CDCA in blood (CTX mice [2]; therapeutic dose (0.5%)): marked accumulation
hepatomegaly (relative liver weight) (CTX mice [3]): only partially
Cyp7a1 expression in liver (Cyp7a1): drastic reduction of Cyp7a1 expression, below physiological levels; also recorded: virtually abrogated
Cyp3a11 expression in liver (Cyp3a11): only a slight reduction
transcription of the endogenous Cyp27a1 gene (Cyp27a1): moderate inhibition
body weight (CTX mice [4]): weight loss
